In brackets after ≈: the same amount, converted by molar mass.
Test system: P. aeruginosa 26
Experiment: In vitro antibacterial activity, MIC by the two-fold agar-plate dilution method
Format: cell-based
Details: Pseudomonas aeruginosa, heart infusion agar, 37° C., 20 hours, overnight culture 10^8 viable cells per ml, read-out: MIC (minimal inhibitory concentration)
Method: Now in order to show the utility of the object compound (I), the test data on MIC (minimal inhibitory concentration) of representative compound of this invention are shown in the following.
In vitro antibacterial activity was determined by the two-fold agar-plate dilution method as described below.
One loopful of an overnight culture of each test strain in Trypticase-soy broth (10^8 viable cells per ml) was streaked on heart infusion agar (HI-agar)containing graded concentrations of representative test compound, and the minimal inhibitory concentration (MIC) was expressed in terms of μg/ml after incubation at 37° C. for 20 hours.

Compound	MIC
CC(C)(O/N=C(\C(=O)N[C@@H]1C(=O)N2C(C(=O)[O-])=C(C[N+](C)(C)Cc3cc(=O)c(O)c[nH]3)CS[C@H]12)c1nsc(N)n1)C(=O)O [Test compound (1), 7β-[2-(5-Amino-1,2,4-thiadiazol-3-yl)-2-(1-carboxy-1-methylethoxyimino)acetamido]-3-[N,N-dimethyl-N-{(5-hydroxy-4-oxo-1,4-dihydropyridin-2-yl)methyl}ammonio]methyl-3-cephem-4-carboxylate (syn isomer)]	≤ 0.025 µg/mL
CO/N=C(\C(=O)N[C@@H]1C(=O)N2C(C(=O)[O-])=C(C[N+]3(C)CCN(C(=O)c4cc(O)c(O)cn4)CC3)CS[C@H]12)c1nsc(N)n1 [Test compound (2), 7β-[2-(5-Amino-1,2,4-thiadiazol-3-yl)-2-methoxyiminoacetamido]-3-[1-methyl-4-(4,5-dihydroxy-2-pyridylcarbonyl)-1-piperazinio]methyl-3-cephem-4-carboxylate (syn isomer)]	0.05 µg/mL (≈ 0.0789 µM)
